Experimental data as given in ChEMBL document CHEMBL1144983, “Synthesis and affinity of a possible byproduct of electrophilic radiolabeling of [123I]IBZM” (Bioorg Med Chem Lett, 2003).

Assays:
Type in all cases: organism-based
D(2) dopamine receptor [1] = target: T1, D(2) dopamine receptor (Rattus norvegicus, UniProt P61169); test: In vivo inhibitory activity against dopamine (D2) receptor in rat caudate-putamen tissue
D(1A) dopamine receptor [2] = target: T2, D(1A) dopamine receptor (Rattus norvegicus, UniProt P18901); test: In vivo inhibitory activity against dopamine (D1) receptor in rat caudate-putamen tissue
D(1A) dopamine receptor [3] = target: T2, D(1A) dopamine receptor; test: In vivo binding affinity against dopamine (D1) receptor in rat caudate-putamen tissue using [3H]SCH-23390 as radioligand
D(2) dopamine receptor [4] = target: T1, D(2) dopamine receptor; test: In vivo binding affinity against dopamine (D2) receptor in rat caudate-putamen tissue using [3H]nemonapride as radioligand

T2 sequence (P18901 whole entry): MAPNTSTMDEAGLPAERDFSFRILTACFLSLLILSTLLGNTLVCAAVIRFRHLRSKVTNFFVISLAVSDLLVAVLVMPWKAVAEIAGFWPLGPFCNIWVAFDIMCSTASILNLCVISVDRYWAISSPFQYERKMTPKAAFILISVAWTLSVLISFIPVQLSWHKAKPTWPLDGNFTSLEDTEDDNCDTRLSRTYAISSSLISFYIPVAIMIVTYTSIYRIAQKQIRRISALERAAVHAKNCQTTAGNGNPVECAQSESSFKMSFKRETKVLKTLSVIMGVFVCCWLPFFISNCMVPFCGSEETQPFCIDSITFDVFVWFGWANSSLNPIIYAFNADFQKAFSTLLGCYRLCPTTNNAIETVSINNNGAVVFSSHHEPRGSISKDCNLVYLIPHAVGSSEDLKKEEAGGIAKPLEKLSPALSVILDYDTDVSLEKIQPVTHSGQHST
T1 sequence (P61169 whole entry): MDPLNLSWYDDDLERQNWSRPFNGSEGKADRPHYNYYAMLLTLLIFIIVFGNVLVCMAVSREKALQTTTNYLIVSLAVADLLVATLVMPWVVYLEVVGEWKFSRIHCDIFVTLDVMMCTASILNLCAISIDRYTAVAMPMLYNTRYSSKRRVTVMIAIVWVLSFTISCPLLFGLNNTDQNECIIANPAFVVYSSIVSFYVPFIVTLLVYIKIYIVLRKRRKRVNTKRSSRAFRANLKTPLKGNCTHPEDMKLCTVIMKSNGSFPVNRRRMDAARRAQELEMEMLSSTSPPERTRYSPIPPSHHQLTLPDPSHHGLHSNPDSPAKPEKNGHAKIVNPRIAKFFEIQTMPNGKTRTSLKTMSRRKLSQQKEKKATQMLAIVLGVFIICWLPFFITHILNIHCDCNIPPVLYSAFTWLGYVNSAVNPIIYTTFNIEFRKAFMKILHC

Row | IC50 (D(2) dopamine receptor [1]) | IC50 (D(1A) dopamine receptor [2]) | IC50 (D(1A) dopamine receptor [3]) | IC50 (D(2) dopamine receptor [4]) | Structure (SMILES)
1 | 196 nM | > 10 µM |  |  | CCN1CCC[C@H]1CNC(=O)c1c(O)ccc(I)c1OC
2 | 1.71 nM | > 10 µM | > 10 µM | 1.2 nM | CCN1CCC[C@H]1CNC(=O)c1c(OC)ccc(I)c1O [IOLOPRIDE]
3 |  | > 10 µM |  |  | CCN1CCC[C@H]1CNC(=O)c1c(O)c(Cl)cc(Cl)c1OC [RACLOPRIDE]
